US20090105218A1, “CRTH2 Receptor Ligands For Therapeutic Use” (7TM PHARMA A/S, priority 2004, published 2009)
pIC50: −log10 of the molar value.

biological target: T1, human CRTH2 receptor (Homo sapiens, UniProt Q9Y5Y4, V204A); assay: CRTH2 receptor binding assay ([3H]PGD2 competition on whole transfected cells); details: competition binding with 0.1 nM [3H]PGD2, whole cells expressing CRTH2, 3 h at 4° C.
T1 construct: expressed in transfected cells; host or cells: COS-7 (transient transfection)
T1 sequence (Q9Y5Y4 1-395 V204A): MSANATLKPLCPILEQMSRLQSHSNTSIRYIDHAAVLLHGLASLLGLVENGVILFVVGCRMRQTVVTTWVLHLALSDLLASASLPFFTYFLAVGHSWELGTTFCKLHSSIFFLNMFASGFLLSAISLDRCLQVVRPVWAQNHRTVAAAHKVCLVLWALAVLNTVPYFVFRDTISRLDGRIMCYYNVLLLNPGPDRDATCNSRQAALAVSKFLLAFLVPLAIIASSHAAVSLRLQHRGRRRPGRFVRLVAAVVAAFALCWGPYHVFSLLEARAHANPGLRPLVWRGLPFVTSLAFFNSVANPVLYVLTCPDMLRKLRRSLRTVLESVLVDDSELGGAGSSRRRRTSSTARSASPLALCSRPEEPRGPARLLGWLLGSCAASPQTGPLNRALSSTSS
Description: Generation/origin of the cDNA Constructs. The coding sequence of the human CRTH2 receptor (genbank accession no NM_004778) was amplified by PCR from a human hippocampus cDNA library and inserted into the pcDNA3.1(+) expression vector (invitrogen) via 5′ HindIII and 3′ EcoRI. The sequence identity of the construct was verified by restriction endonuclease digests and sequencing in both directions on an ABI Prism (Applied Biosystems, Foster City, Calif.).
Cell Culture and Transfection. COS-7 cells were grown in Dulbecco's modified Eagle's medium (DMEM) 1885 supplemented with 10% fetal bovine serum, 100 units/ml penicillin, […] streptomycin, and kept at 37° C. in a 10% CO2 atmosphere. HEK293 cells were maintained in Minimum Essential medium (MEM) supplemented with 10% (v/v) heat inactivated fetal calf serum (HIFCS), 2 mM Glutamax™-I, 1% non essential amino acids (NEAA), 1% sodium pyruvate and 10 μg/ml gentamicin. For binding experiments, COS7 cells were transiently transfected with the CRTH2 receptor using a calcium phosphate-DNA coprecipitation method with the addition of chloroquine (as described by Holst B, Hastrup H, Raffetseder U, Martini L, Schwartz T W. J Biol. Chem. 2001 Jun. 8; 276(23):19793-9.)
Binding assay. 24 h after transfection COS-7 cells were seeded into 96 well plates at a density of 30.000 cells/well. Competition binding experiments on whole cells were then performed about 18-24 h later using 0.1 nM [^3H]PGD2 (NEN, 172 Ci/mmol) in a binding buffer consisting of HBSS (GIBCO) and 10 mM HEPES. Competing ligands were diluted in DMSO which was kept constant at 1% (v/v) of the final incubation volume. Total and nonspecific binding were determined in the absence and presence of 10 μM PGD2. Binding reactions were routinely conducted for 3 h at 4° C. and terminated by 2 washes (100 μl each) with ice cold binding buffer. Radioactivity was determined by liquid scintillation counting in a TOPCOUNTER (Packard) following over night incubation in Microscint 20. Stable HEK293 cells were seeded at a density of 30.000 cells/well 18-24 h prior to the binding assay which was performed essentially as described for COS7 cells above. Determinations were made in duplicates.
Curve analysis was performed with the GraphPadPrism software 3.0 (Graphpad Prism Inc., San Diego, USA) and IC50 values were calculated as a measure of the antagonistic potencies.

pIC50, > 6.30:
O=C(Nc1ccccc1C(=O)O)c1ccc(Br)c(S(=O)(=O)Nc2cccc(Oc3ccccc3)c2)c1 [B21, 2-[4-Bromo-3-(3-phenoxyphenylsulfamoyl)benzoylamino]benzoic acid]
O=C(Nc1ccccc1C(=O)O)c1cc(S(=O)(=O)N2CCCCC2)c(Cl)cc1Cl [B70]
O=C(Nc1cccc(C(=O)Nc2ccccc2C(=O)O)c1)c1ccc(I)cc1 [B43]
Cc1c(S(=O)(=O)Nc2ccc(I)cc2)csc1C(=O)Nc1ccccc1C(=O)O [B24, 2-[4-(4-Iodophenylsulfamoyl)-3-methylthiophene-2-carbonylamino]benzoic acid]
O=C(Nc1ccc(Br)cc1C(=O)O)c1ccc(Br)c(S(=O)(=O)Nc2ccc(Br)cc2)c1 [B26, 5-Bromo-2-[4-bromo-3-(4-bromophenylsulfamoyl)benzoylamino]benzoic acid]
O=C(Nc1ccc(Br)cc1C(=O)O)c1cccc(S(=O)(=O)Nc2ccc(F)cc2)c1 [B29, 5-Bromo-2-[3-(4-fluorophenylsulfamoyl)benzoylamino]benzoic acid]
O=C(Nc1ccc(Br)cc1C(=O)O)c1cccc(S(=O)(=O)Nc2ccc(I)cc2)c1 [B17, 5-Bromo-2-[3-(4-iodophenylsulfamoyl)benzoylamino]benzoic acid]
O=C(Nc1ccccc1C(=O)O)c1ccc(Br)c(S(=O)(=O)Nc2ccc(Br)cc2)c1 [B54]
Cc1ccc(OCC(=O)Nc2cccc(C(=O)Nc3ccccc3C(=O)O)c2)cc1C [B32]
O=C(Nc1ccc(Br)cc1C(=O)O)c1cccc(S(=O)(=O)Nc2cccc(Oc3ccccc3)c2)c1 [B16, 5-Bromo-2-[3-(3-phenoxyphenylsulfamoyl)benzoylamino]benzoic acid]
O=C(Nc1ccccc1C(=O)O)c1ccc(Br)c(S(=O)(=O)Nc2ccc(OC(F)(F)F)cc2)c1 [B19, 2-[4-Bromo-3-(4-trifluoromethoxyphenylsulfamoyl)benzoylamino]benzoic acid]

pIC50, < 5.30:
O=C(Nc1ccccc1C(=O)O)c1cccc(NC(=O)c2ccco2)c1 [B35]
O=C(Nc1ccccc1C(=O)O)c1cc(S(=O)(=O)N2CCOCC2)ccc1Cl [B67]
O=C(Nc1ccccc1C(=O)O)c1cccc(S(=O)(=O)N2CCCC2)c1 [B74]
CC(=O)c1ccc(NS(=O)(=O)c2cc(C(=O)Nc3ccccc3C(=O)O)ccc2C)cc1 [B65]

pIC50, 5.30 to 6.30:
Cc1ccc(S(=O)(=O)Nc2cccc(C(=O)Nc3ccccc3C(=O)O)c2)cc1 [B5, 2-[3-(Toluene-4-sulfonylamino)benzoylamino]benzoic acid]
O=C(Nc1ccccc1C(=O)O)c1cc(S(=O)(=O)Nc2ccc(Br)cc2)ccc1Cl [B58]
Cc1ccc(NS(=O)(=O)c2cccc(C(=O)Nc3ccccc3C(=O)O)c2)cc1 [B46]
O=C(Nc1ccccc1C(=O)O)c1cccc(NC(=O)c2cccs2)c1 [B33]
O=C(Cc1ccccc1)Nc1cccc(C(=O)Nc2ccccc2C(=O)O)c1 [B37]
COc1ccccc1NS(=O)(=O)c1cccc(C(=O)Nc2ccccc2C(=O)O)c1 [B60]
COc1cc(C(=O)Nc2cccc(C(=O)Nc3ccccc3C(=O)O)c2)cc(OC)c1OC [B34]
O=C(Nc1ccccc1C(=O)O)c1cc(S(=O)(=O)N2CCCC2)c(Cl)cc1Cl [B80]
O=C(Nc1ccc(C(=O)Nc2ccccc2C(=O)O)cc1)c1ccc(Br)cc1 [B45]
O=C(Nc1ccccc1C(=O)O)c1ccc(Br)c(S(=O)(=O)Nc2ccc(Cl)nc2)c1 [B18, 2-[4-Bromo-3-(6-chloropyridin-3-ylsulfamoyl)benzoylamino]benzoic acid]
COc1ccc(NS(=O)(=O)c2cccc(C(=O)Nc3ccccc3C(=O)O)c2)cc1 [B48]
COc1ccc(C(=O)Nc2cccc(C(=O)Nc3ccccc3C(=O)O)c2)cc1 [B11, 2-[3-(4-Methoxybenzoylamino)benzoylamino]benzoic acid]
Cc1ccc(C(=O)Nc2ccccc2C(=O)O)cc1S(=O)(=O)NC1CCCCC1 [B73]
O=C(Nc1ccccc1C(=O)O)c1cccc(S(=O)(=O)N2CCCCC2)c1 [B81]
COc1cccc(OC)c1C(=O)Nc1cccc(C(=O)Nc2ccccc2C(=O)O)c1 [B38]
CCOc1ccc(NS(=O)(=O)c2cccc(C(=O)Nc3ccccc3C(=O)O)c2)cc1 [B61]
CCN(CC)S(=O)(=O)c1cc(C(=O)Nc2ccccc2C(=O)O)ccc1OC [B76]
O=C(Nc1ccccc1C(=O)O)c1cccc(S(=O)(=O)NC2CCCCC2)c1 [B66]
